Test results published in patent US4009166A, “Pyrido(2,3-d) pyrimidinones” (Hisamitsu Pharmaceutical Co., Inc., priority 1974, dated 1977).
Structures can show the parent of a compound that is named as a salt. Where two headings read alike, the source gives them in different places.

What was measured:
[1] = system: carrageenin edema in Wistar-strain male rats; test: Anti-inflammatory effect (carrageenin edema of the hind paw); assay type: in vivo; conditions: Rattus norvegicus, po; for inhibition in vivo at 10 mg/kg: read-out: anti-inflammatory effect dose(mg/kg) 10 (inhibition percentage of carrageenin edema); for inhibition in vivo at 50 mg/kg: read-out: anti-inflammatory effect dose(mg/kg) 50 (inhibition percentage of carrageenin edema)
Protocol: 2. Anti-inflammatory effect
A group of five Wistar-strain male rats (100-150 g) were orally administered with each test compound suspended in 0.5% tragacanth-saline solution. After 30 minutes 0.5-1.0% carrageenin suspended in the water for injection was injected subcutaneously to a hind paw. After 3 hours the carrageenin edema was measured by volume and the inhibition percentage was determined with respect to the results for the control animals. The inhibition percentages were shown with the notations as follows: […]

[2] = system: writhing syndrome in dd-strain male mice; test: Analgetic effect (acetic acid writhing syndrome); assay type: in vivo; conditions: Mus musculus, po, orally, 0.6% acetic acid writhing, Litchfield-Wilcoxon, read-out: analgetic effect ED50 (95 % C.L.)
Protocol: 3. Analgetic effect Each test compound suspended in 0.5% tragacanth-saline solution was orally administered to dd-strain male mice (18-20 g). After one hour 0.6% acetic acid solution was intraperitoneally injected in a volume of 0.1 ml/10 g.

[3] = system: righting reflex of dd-strain male mice; test: Central nervous system depressive effect (disappearance of righting reflex); assay type: in vivo; conditions: Mus musculus, ip, read-out: C N S depressive effect (dose required for the disappearance of righting reflex)
Protocol: 4. Central nervous system depressive effect
Each test compound suspended in 0.5% tragacanth-saline solution was injected intraperitoneally to dd-strain male mice (16-24 g). The disappearance of righting reflex was observed under noiseless circumstances. The dose required for the disappearance of righting reflex is indicated with the following notations: […]

[4] = system: dd-strain male mice; conditions: deaths 72 hours after administration
Protocol: The lethal dose was estimated from the death of animals 72 hours after administration.

[5] = system: writhing syndrome in dd-strain male mice; test: Analgetic effect (acetic acid writhing syndrome); assay type: in vivo; conditions: Mus musculus, ip, read-out: analgetic effect ED50 (95 % C.L.), i.p.
[6] = 10 mg/kg orally, rats, edema volume 3 hours after carrageenin
[7] = 50 mg/kg orally, rats, edema volume 3 hours after carrageenin

SMILES | inhibition in vivo at 10 mg/kg [1, 6] [%] | inhibition in vivo at 50 mg/kg [1, 7] [%] | ED50 [2] [mg/kg] | minimal effective dose ([3]; intraperitoneally, mice) [mg/kg] | acute toxicity i.p. (lethal dose) [4] [mg/kg] | acute toxicity p.o. (lethal dose) [4] [mg/kg] | ED50 [5] [mg/kg] | inhibition in vivo at 10 mg/kg ([1]; 3 h) [%] | inhibition in vivo at 50 mg/kg ([1]; 3 h) [%] | minimal effective dose [3] [mg/kg]
CC(C)N1CN(c2cccc(Cl)c2)c2ncccc2C1=O | 16 to 30 | 31 to 45 | > 100 | – | – | – | – | – | – | –
CC(C)N1CN(c2cccc([N+](=O)[O-])c2)c2ncccc2C1=O | 46 to 60 | 46 to 60 | 4.7 | 100 to 300 | > 1000 | < 2000 | – | – | – | –
CC(C)N1Cc2cccnc2N(c2cccc(F)c2)C1=O | 31 to 45 | > 61 | 4.5 | 3 to 10 | – | – | – | – | – | –
CC(C)N1Cc2cccnc2N(c2cccc(C(F)(F)F)c2)C1=O | < 15 | 46 to 60 | 6.7 | 10 to 30 | > 1000 | 2000 | – | – | – | –
CC(C)N1Cc2cccnc2N(c2ccc(Cl)c(Cl)c2)C1=O | 46 to 60 | > 61 | 16.3 | 3 to 10 | 1000 | 2000 | – | – | – | –
Cc1c(N(C)C)c(=O)n(-c2ccccc2)n1C [aminopyrine, reference compound] | < 15 | < 15 | – | – | 100 to 300 | – | 56 | – | – | –
CN1C(=O)CN=C(c2ccccc2)c2cc(Cl)ccc21 [diazepam, reference compound] | – | – | – | – | – | – | – | < 15 | 16 to 30 | 30 to 100
COCN1CN(c2cccc(Cl)c2)c2ncccc2C1=O [drawing 119/CH2 OCH3] | 16 to 30 | 16 to 30 | > 100 | – | – | – | – | – | – | –
CCN1CN(c2cccc(Br)c2)c2ncccc2C1=O [drawing 121/C2 H5] | – | 31 to 45 | > 100 | 30 to 100 | > 1000 | – | – | – | – | –
CN1CN(c2cccc(Br)c2)c2ncccc2C1=O [drawing 121/CH3] | – | < 15 | > 100 | 30 to 100 | > 1000 | – | – | – | – | –
CCN1CN(c2cccc(C(F)(F)F)c2)c2ncccc2C1=O [drawing 122/C2 H5] | 16 to 30 | > 61 | > 100 | 30 to 100 | > 1000 | – | – | – | – | –
CN1CN(c2cccc(C(F)(F)F)c2)c2ncccc2C1=O [drawing 122/CH3] | 16 to 30 | < 15 | – | – | – | – | – | – | – | –
CCN1CN(c2cccc([N+](=O)[O-])c2)c2ncccc2C1=O [drawing 123/C2 H5] | 31 to 45 | > 61 | 1.95 | 30 to 100 | 1000 | 2000 | – | – | – | –
COCN1CN(c2cccc([N+](=O)[O-])c2)c2ncccc2C1=O [drawing 123/CH2 OCH3 . HCl] | 46 to 60 | 46 to 60 | 2.7 | – | – | < 2000 | – | – | – | –
CN1CN(c2cccc([N+](=O)[O-])c2)c2ncccc2C1=O [drawing 123/CH3, 1-(m-nitrophenyl)-3-methyl-4-oxo-1,2,3,4-tetrahydropyrido[2,3-d]pyrimidine] | < 15 | 16 to 30 | 22 | > 1000 | > 1000 | – | – | – | – | –
CCN1Cc2cccnc2N(c2ccccc2)C1=O [drawing 126/C2 H5] | 46 to 60 | 46 to 60 | 2.1 | 3 to 10 | 300 | – | – | – | – | –
CN1Cc2cccnc2N(c2ccccc2)C1=O [drawing 126/CH3] | 31 to 45 | 46 to 60 | 13 | 3 to 10 | – | – | – | – | – | –
CCN1Cc2cccnc2N(c2cccc(F)c2)C1=O [drawing 127/C2 H5] | > 61 | > 61 | 4.4 | < 3 | – | – | – | – | – | –
